Reference: patent US20060040885A1, “Bioprosthetic heart valves” (Mayo Foundation for Medical Education and Research, a …, priority 1999, published 2006)

Tests used:
nitric oxide synthase = test: Nitric oxide synthase activity in aortic valve endothelial cell lysates (3H-L-arginine to L-citrulline conversion); assay type: cell-based, pigs; conditions: valvular cells treated with pravastatin
Description: To assess nitric oxide synthase activity, the aortic valve endothelial cell lysates were evaluated using an NADPH disphorase reaction. Briefly, each lysate was incubated for 30 minutes in a NOS assay buffer containing ^3H-L-arginine, NADPH (100 mM), tetrahydrobiopterin (1 mM), calmodulin ([…]), and CaCl2 (25 mM). The reaction was quenched with ice cold stop buffer (2 mM EDTA, 20 mM Hepes, pH 5.5). The mixture was passed over a Dowex AG50WX-8 Na form resin and washed with one mL stop buffer. Nitric oxide synthase activity was calculated to be the amount of L-arginine converted to L-citrulline that was inhibited by 1-NAME. A scintillation counter was used to determine the amount of radioactivity.

rabbit aortic valves = test: 1% cholesterol diet in rabbits, aortic valve immunostaining (PCNA, osteopontin) and cholesterol levels; assay type: in vivo, New Zealand rabbits; conditions: 1% cholesterol diet for 12 weeks
Description: In another experiment, osteopontin expression was evaluated. Osteopontin is a non-collagenous bone matrix protein found to be present in the hypercholesterolemic aortic valves. New Zealand rabbits (n=8) were fed with a 1% cholesterol diet for 12 weeks. Eight control animals were fed a normal chow diet. Aortic valves were cut and foam cells were identified by immunostaining for macrophage antibody. Cell proliferation was assessed by immunostaining for proliferating nuclear antigen (PCNA), and osteopontin (OP) for calcification. Transmission electron microscopy immunogold labeling confirmed osteopontin expression.

[1] = test system: cultured porcine aortic valve subendothelial cells; test: 3H thymidine incorporation assay, serotonin-induced proliferation; assay type: cell-based
Description: To examine the direct proliferative effects of serotonin, cultured porcine aortic valve subendothelial cells were treated with 1 μM, 100 nM, and 10 nM of serotonin and then tested using a ^3H thymidine incorporation assay.

**Q.** How did the “nitric oxide synthase activity versus cells treated with serum-free media alone” value (nitric oxide synthase) turn out when `CC[C@H](C)C(=O)O[C@H]1C[C@H](O)C=C2C=C[C@H](C)[C@H](CC[C@@H](O)C[C@@H](O)CC(=O)O)[C@H]21` [Pravastatin, pravastatin] was run?
**A.** about 100 fold

**Q.** `CC(C)CCC[C@@H](C)[C@H]1CC[C@H]2[C@@H]3CC=C4C[C@@H](O)CC[C@]4(C)[C@H]3CC[C@]12C` [cholesterol] was tested. Which “number of proliferating cells (PCNA) in aortic valves compared to controls” value (rabbit aortic valves) did it give?
**A.** thousand-fold increase

**Q.** And the “osteopontin expression in the atherosclerotic lesion of the aortic valves” value (rabbit aortic valves)?
**A.** increased osteopontin expression

**Q.** `CSc1ccc2c(c1)C(N1CCN(C)CC1)Cc1ccccc1S2` (centres unmarked) [methiothepin] was tested. Which “effect on serotonin-induced proliferation” value ([1]; methiothepin 7 nM with serotonin) did it give?
**A.** inhibited the serotonin-induced proliferation

**Q.** `NCCc1c[nH]c2ccc(O)cc12` [serotonin] was tested. Which “increase in cell proliferation compared to untreated cells” value ([1]; serotonin 1 μM, 100 nM and 10 nM, p<0.001) did it give?
**A.** 33 fold
